These results are taken from US9487483B2, “Complement pathway modulators and uses thereof” (priority 2012, dated 2016).

The structures appear in SMILES notation.

The first experiment deals with Recombinant human factor D (Homo sapiens (Human), UniProt P00746). As to the kind of experiment: biochemical. The experiment is classed as biochemical. As to conditions: Factor D inhibition data using Method 1; substrate Z-Lys-thiobenzyl, fluorescence readout; read-out: IC50.
Sequence of Recombinant human factor D (P00746 26-253): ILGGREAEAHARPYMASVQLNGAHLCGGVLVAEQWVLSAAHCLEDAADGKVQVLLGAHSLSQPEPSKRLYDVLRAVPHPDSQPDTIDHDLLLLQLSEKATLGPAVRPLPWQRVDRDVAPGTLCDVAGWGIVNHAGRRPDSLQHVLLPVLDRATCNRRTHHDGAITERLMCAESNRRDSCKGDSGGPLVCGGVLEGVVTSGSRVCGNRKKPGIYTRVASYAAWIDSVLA
Method: Human Complement Factor D Assay: Method 1
Recombinant human factor D (expressed in E. coli and purified using standard methods) at 10 nM concentration is incubated with test compound at various concentrations for 1 hour at room temperature in 0.1 M Hepes buffer, pH 7.5, containing 1 mM MgCl2, 1 M NaCl and 0.05% CHAPS. […] IC50 values are calculated from percentage of inhibition of complement factor D-activity as a function of test compound concentration.
As for `NC(=O)n1cc(NC(=O)N2[C@@H]3C[C@@H]3C[C@H]2C(=O)N[C@@H]2CCC[C@H](C(F)(F)F)C2)c2ccccc21` [Example 26, (1R,3S,5R)-2-Aza-bicyclo[3.1.0]hexane-2,3-dicarboxylic acid 2-[(1-carbamoyl-1H-indol-3-yl)-amide] 3-[((1R,3S)-3-trifluoromethyl-cyclohexyl)-amide]], the IC50 came to 26 nM.
Same read-out and setting: next, `CC1(C)CCC[C@@H](NC(=O)[C@@H]2C[C@@H](F)CN2C(=O)Nc2cn(C(N)=O)c3ccccc23)C1` [Example 27, (2S,4R)-4-Fluoro-pyrrolidine-1,2-dicarboxylic acid 1-[(1-carbamoyl-1H-indol-3-yl)-amide] 2-[((R)-3,3-dimethyl-cyclohexyl)-amide]]: 40 nM.
Same read-out and setting: under `NC(=O)c1nn(CC(=O)N2[C@@H]3C[C@@H]3C[C@H]2C(=O)NC2CCCC(O)(C(F)(F)F)C2)c2ccccc12` (stereo partly drawn) [Example 31, 1-{2-[(1R,3S,5R)-3-(3-Hydroxy-3-trifluoromethyl-cyclohexylcarbamoyl)-2-aza-bicyclo[3.1.0]hex-2-yl]-2-oxo-ethyl}-1H-indazole-3-carboxylic acid amide] stands 900 nM; under `CC(=O)c1nn(CC(=O)N2[C@@H]3C[C@@H]3C[C@H]2C(=O)NC2CCCC(OC(F)(F)F)C2)c2ccccc12` (stereo partly drawn) [Example 32, (1R,3S,5R)-2-[2-(3-Acetyl-indazol-1-yl)-acetyl]-2-aza-bicyclo[3.1.0]hexane-3-carboxylic acid (trans-3-trifluoromethoxy-cyclohexyl)-amide], 63 nM; under `NC(=O)c1nn(CC(=O)N2[C@@H]3C[C@@H]3C[C@H]2C(=O)NC2CCCC(O)(C(F)(F)F)C2)c2cnccc12` (stereo partly drawn) [Example 34, 1-{2-[(1R,3S,5R)-3-(3-Hydroxy-3-trifluoromethyl-cyclohexylcarbamoyl)-2-aza-bicyclo[3.1.0]hex-2-yl]-2-oxo-ethyl}-1H-pyrazolo[3,4-c]pyridine-3-carboxylic acid amide], 728 nM.
On the same count and under the same terms, under `NC(=O)c1nn(CC(=O)N2[C@@H]3C[C@@H]3C[C@H]2C(=O)NC2CCCCC2(F)F)c2cnccc12` (stereo partly drawn) [Example 35, 1-{2-[(1R,3S,5R)-3-(2,2-Difluoro-cyclohexylcarbamoyl)-2-aza-bicyclo[3.1.0]hex-2-yl]-2-oxo-ethyl}-1H-pyrazolo[3,4-c]pyridine-3-carboxylic acid amide] stands 774 nM; under `CC(=O)c1nn(CC(=O)N2[C@@H]3C[C@@H]3C[C@H]2C(=O)NC2CCCC=C2F)c2ccc(OCc3ncccn3)cc12` (stereo partly drawn) [Example 38, (1R,3S,5R)-2-{2-[3-acetyl-5-(pyrimidin-2-ylmethoxy)-indazol-1-yl]-acetyl}-2-aza-bicyclo[3.1.0]hexane-3-carboxylic acid (2-fluoro-cyclohex-2-enyl)-amide], 282 nM; under `CO[C@H]1CCC[C@@H](NC(=O)[C@@H]2C[C@H]3C[C@H]3N2C(=O)Cn2nc(C(N)=O)c3ccccc32)C1` [Example 46, 1-{2-[(1R,3S,5R)-3-((1R,3S)-3-Methoxy-cyclohexylcarbamoyl)-2-aza-bicyclo[3.1.0]hex-2-yl]-2-oxo-ethyl}-1H-indazole-3-carboxylic acid amide], 478 nM.
On to `NC(=O)c1nn(CC(=O)N2[C@@H]3C[C@@H]3C[C@H]2C(=O)N[C@@H]2CCC[C@H](C(F)(F)F)C2)c2ccccc12` [Example 49, 1-{2-Oxo-2-[(1R,3S,5R)-3-((1R,3S)-3-trifluoromethyl-cyclohexylcarbamoyl)-2-aza-bicyclo[3.1.0]hex-2-yl]ethyl}-1H-indazole-3-carboxylic acid amide], for which the IC50 came out at 29 nM.
Same read-out and setting: under `Cc1cc2c(C(N)=O)nn(CC(=O)N3[C@@H]4C[C@@H]4C[C@H]3C(=O)N[C@@H]3CCC[C@H](C(F)(F)F)C3)c2cn1` [Example 50, 5-Methyl-1-{2-oxo-2-[(1R,3S,5R)-3-((1R,3S)-3-trifluoromethyl-cyclohexylcarbamoyl)-2-aza-bicyclo[3.1.0]hex-2-yl]ethyl}-1H-pyrazolo[3,4-c]pyridine-3-carboxylic acid amide] stands 118 nM; under `C[C@H]1CCC[C@@H](NC(=O)[C@@H]2C[C@H]3C[C@H]3N2C(=O)Cn2nc(C(N)=O)c3ccncc32)C1` [Example 51, 1-{2-[(1R,3S,5R)-3-((1R,3S)-3-Methyl-cyclohexylcarbamoyl)-2-aza-bicyclo[3.1.0]hex-2-yl]-2-oxo-ethyl}-1H-pyrazolo[3,4-c]pyridine-3-carboxylic acid amide], 226 nM.
Regarding `NC(=O)c1nn(CC(=O)N2[C@@H]3C[C@@H]3C[C@H]2C(=O)NC2CCC(F)(F)C2)c2ccccc12` (stereo partly drawn) [Example 52, 1-{2-[(1R,3S,5R)-3-(3,3-Difluoro-cyclopentylcarbamoyl)-2-aza-bicyclo[3.1.0]hex-2-yl]-2-oxo-ethyl}-1H-indazole-3-carboxylic acid amide], the IC50 worked out at 999 nM.
The same measure, in the same setting: under `CC1(C)CCC[C@H](NC(=O)[C@@H]2C[C@H]3C[C@H]3N2C(=O)Cn2nc(C(N)=O)c3ccccc32)C1` [Example 53, 1-{2-[(1R,3S,5R)-3-((S)-3,3-Dimethyl-cyclohexylcarbamoyl)-2-aza-bicyclo[3.1.0]hex-2-yl]-2-oxo-ethyl}-1H-indazole-3-carboxylic acid amide] stands 905 nM.
`CC1(C)CCC[C@@H](NC(=O)[C@@H]2C[C@H]3C[C@H]3N2C(=O)Cn2nc(C(N)=O)c3ccccc32)C1` [Example 54, 1-{2-[(1R,3S,5R)-3-((R)-3,3-Dimethyl-cyclohexylcarbamoyl)-2-aza-bicyclo[3.1.0]hex-2-yl]-2-oxo-ethyl}-1H-indazole-3-carboxylic acid amide]: the IC50 worked out at 57 nM.
The same measure, in the same setting: next, `CC1(C)CCC[C@H](NC(=O)[C@@H]2C[C@H]3C[C@H]3N2C(=O)Cn2nc(C(N)=O)c3ccncc32)C1` [Example 55, 1-{2-[(1R,3S,5R)-3-((S)-3,3-Dimethyl-cyclohexylcarbamoyl)-2-aza-bicyclo[3.1.0]hex-2-yl]-2-oxo-ethyl}-1H-pyrazolo[3,4-c]pyridine-3-carboxylic acid amide]: 2210 nM.

The experiment is the same for the next values; noted with them: read-out: IC50.
Take `C[C@H]1CCC[C@@H](NC(=O)[C@@H]2C[C@H]3C[C@H]3N2C(=O)Nc2cn(C(N)=O)c3ccccc23)C1` [Example 25, (1R,3S,5R)-2-Aza-bicyclo[3.1.0] hexane-2,3-dicarboxylic acid 2-[(1-carbamoyl-1H-indol-3-yl)-amide] 3-[((1R,3S)-3-methyl-cyclohexyl)-amide]]: the IC50 was found to be 28 nM.
The same measure, in the same setting: under `Cc1cc2c(C(N)=O)nn(CC(=O)N3[C@@H]4C[C@@H]4C[C@H]3C(=O)NN3CCCC(C)(C)C3)c2cn1` [Example 29, 1{2-[(1R,3S,5R)-3-(3,3-Dimethyl-pipendin-1-ylcarbamoyl)-2-aza-bicyclo[3.1.0]hex-2-yl]-2-oxo-ethyl}-5-methyl-1H-pyrazolo[3,4-c] pyridine-3-carboxylic acid amide] stands 28 nM; under `CC(=O)c1nn(CC(=O)N2[C@@H]3C[C@@H]3C[C@H]2C(=O)NN2CCCC(C)(C)C2)c2ccc(OCc3ncccn3)cc12` [Example 30, (1R,3S,5R)-2-{2-[3-Acetyl-5-(pyrimidin-2-ylmethoxy)-indazol-1-yl]-acetyl}-2-aza-bicyclo[3.1.0] hexane-3-carboxylic acid (3,3-dimethyl-piperidin-1-yl)-amide], 10 nM; under `NC(=O)c1nn(CC(=O)N2[C@@H]3C[C@@H]3C[C@H]2C(=O)NC2CCCC(OC(F)(F)F)C2)c2ccccc12` (stereo partly drawn) [Example 33, 1-{2-Oxo-2-[(1R,3S,5R)-3-(trans-3-trifluoromethoxy-cyclohexylcarbamoyl)-2-aza-bicyclo[3.1.0]hex-2-yl]ethyl}-1H-indazole-3-carboxylic acid amide], 121 nM.
On the same count and under the same terms, under `NC(=O)c1nn(CC(=O)N2[C@@H]3C[C@@H]3C[C@H]2C(=O)N[C@@H]2CCC[C@H](C(F)(F)F)C2)c2cnccc12` [Example 41, 1-{2-Oxo-2-[(1R,3S,5R)-3-((1R,3S)-3-trifluoromethyl-cyclohexylcarbamoyl)-2-aza-bicyclo[3.1.0]hex-2-yl]-ethyl}-1H-pyrazolo[3,4-c]pyridine-3-carboxylic acid amide] stands 114 nM.
Same read-out and setting: under `CO[C@H]1CCC[C@H](NC(=O)[C@@H]2C[C@H]3C[C@H]3N2C(=O)Cn2nc(C(C)=O)c3ccccc32)C1` [Example 42, (1R,3S,5R)-2-[2-(3-Acetyl-indazol-1-yl)-acetyl]-2-aza-bicyclo[3.1.0]hexane-3-carboxylic acid ((1S,3S)-3-methoxy-cyclohexyl)-amide] stands 1070 nM.
Take `CO[C@@H]1CCC[C@@H](NC(=O)[C@@H]2C[C@H]3C[C@H]3N2C(=O)Cn2nc(C(C)=O)c3ccccc32)C1` [Example 43, (1R,3S,5R)-2-[2-(3-Acetyl-indazol-1-yl)-acetyl]-2-aza-bicyclo[3.1.0]hexane-3-carboxylic acid ((1R,3R)-3-methoxy-cyclohexyl)-amide]: the IC50 is 323 nM.
Regarding `CO[C@@H]1CCC[C@H](NC(=O)[C@@H]2C[C@H]3C[C@H]3N2C(=O)Cn2nc(C(C)=O)c3ccccc32)C1` [Example 44, (1R,3S,5R)-2-[2-(3-Acetyl-indazol-1-yl)-acetyl]-2-aza-bicyclo[3.1.0]hexane-3-carboxylic acid ((1S,3R)-3-methoxy-cyclohexyl)-amide], the IC50 stood at 1880 nM.
Take `CO[C@H]1CCC[C@@H](NC(=O)[C@@H]2C[C@H]3C[C@H]3N2C(=O)Cn2nc(C(C)=O)c3ccccc32)C1` [Example 45, (1R,3S,5R)-2-[2-(3-Acetyl-indazol-1-yl)-acetyl]-2-aza-bicyclo[3.1.0]hexane-3-carboxylic acid ((1R,3S)-3-methoxy-cyclohexyl)-amide]: the IC50 stood at 405 nM.
As for `C[C@H]1CCC[C@@H](NC(=O)[C@@H]2C[C@H]3C[C@H]3N2C(=O)Cn2nc(C(N)=O)c3ccccc32)C1` [Example 47, 1-{2-[(1R,3S,5R)-3-((1R,3S)-3-Methyl-cyclohexylcarbamoyl)-2-aza-bicyclo[3.1.0]hex-2-yl]-2-oxo-ethyl}-1H-indazole-3-carboxylic acid amide], the half-inhibitory concentration (IC50) amounted to 91 nM.
Still for that read-out and setting: next, `C[C@@H]1CCC[C@H](NC(=O)[C@@H]2C[C@H]3C[C@H]3N2C(=O)Cn2nc(C(N)=O)c3ccccc32)C1` [Example 48, 1-{2-[(1R,3S,5R)-3-((1S,3R)-3-Methyl-cyclohexylcarbamoyl)-2-aza-bicyclo[3.1.0]hex-2-yl]-2-oxo-ethyl}-1H-indazole-3-carboxylic acid amide]: 1320 nM.

As usually defined, the IC50 is the concentration at which inhibition is half-maximal.
